Some test systems named below: RPMI-8226; HCT-116; 786-0; SF-268; UACC-62; M14; HT-29; CAKI-1; HOP-62; SK-MEL-2; NCI-H522; A498; COLO 205; SK-MEL-28; CCRF-CEM; OVCAR-8; EKVX; SF-295; RXF 393; HCC 2998.
Assay in all cases: growth of human tumour cells (NCI), 48 h

Structures are written as SMILES.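 How tested: cells in 96-well plates exposed to compound for 48 hours at five concentrations. GI50 is the concentration that inhibits growth by half.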 Activity calls are given as the source filed them. Cut-off read from the data, not from the text of the source: active = GI50 up to about 1.1 µM and inactive = higher.

Take `Cn1cnc([N+](=O)[O-])c1Sc1n[nH]c(-c2ccc(Cl)cc2)n1`: the GI50 is 22.1 µM (inactive) with RPMI-8226; 19.6 µM (inactive) in the assay with HCT-116; 20.3 µM (inactive) in the assay with 786-0; 22 µM (inactive) with SF-268; 14.4 µM (inactive) with UACC-62; 15 µM (inactive) with M14. The GI50 is 19.1 µM (inactive) with HT-29; 25.1 µM (inactive) in the assay on CAKI-1; 21.5 µM (inactive) in the assay on HOP-62; 13.6 µM (inactive) in the assay on SK-MEL-2; 11.7 µM (inactive) in the assay on NCI-H522; 22.4 µM (inactive) in the assay on A498. In addition, the GI50 was 17.1 µM (inactive) in the assay on COLO 205; 15.3 µM (inactive) in the assay with SK-MEL-28; 11.8 µM (inactive) in the assay with CCRF-CEM; 16.3 µM (inactive) in the assay on OVCAR-8; 23.9 µM (inactive) in the assay with EKVX; 23.4 µM (inactive) in the assay on SF-295. Also, the GI50 with RXF 393 is 13.3 µM (inactive); in the assay with HCC 2998, 21.3 µM (inactive).

`C[C@H]1CC[C@@H]2[C@@H](C)[C@H]3[C@H](C[C@H]4[C@@H]5CC=C6C[C@@H](O)CC[C@]6(C)[C@H]5CC[C@]34C)N2C1`: the GI50 in the assay with RPMI-8226 is 26.3 µM (inactive); in the assay with HCT-116, 36.4 µM (inactive); in the assay with 786-0, 30.4 µM (inactive); in the assay with SF-268 it was > 100 µM (inactive); in the assay on UACC-62, 43 µM (inactive); with M14 it was 74 µM (inactive). Further, the GI50 with HT-29 was 18.6 µM (inactive); in the assay with CAKI-1, 41.1 µM (inactive); in the assay with HOP-62 it was 31.4 µM (inactive); in the assay with SK-MEL-2, > 100 µM (inactive); with NCI-H522, 42.6 µM (inactive); in the assay with A498, 13.6 µM (inactive). Also, the GI50 in the assay with COLO 205 was 16.3 µM (inactive); in the assay with SK-MEL-28 it was 47.1 µM (inactive); with CCRF-CEM it was 32.5 µM (inactive); in the assay with OVCAR-8, 32.5 µM (inactive); in the assay on EKVX, 36.4 µM (inactive); with SF-295, 40.6 µM (inactive). The GI50 was 19.4 µM (inactive) in the assay on RXF 393 and 97.1 µM (inactive) in the assay on HCC 2998.

`O=C1c2ccccc2C(=O)c2oc(Br)cc21`: the GI50 was 1.75 µM (inactive) with RPMI-8226; 1.36 µM (inactive) with HCT-116; 1.57 µM (inactive) in the assay with 786-0; 1.87 µM (inactive) with SF-268; 0.544 µM (active) with UACC-62; 0.161 µM (active) with M14. Also, the GI50 in the assay with HT-29 was 1.6 µM (inactive); with CAKI-1 it was 1.76 µM (inactive); in the assay with HOP-62 it was 1.69 µM (inactive); with SK-MEL-2 it was 0.578 µM (active); with NCI-H522 it was 1.55 µM (inactive); with A498, 1.94 µM (inactive). The GI50 with COLO 205 is 1.92 µM (inactive); with SK-MEL-28, 0.34 µM (active); in the assay with CCRF-CEM, 1.95 µM (inactive); with OVCAR-8, 1.38 µM (inactive); in the assay with EKVX it was 1.94 µM (inactive); in the assay with SF-295 it was 0.269 µM (active). Also, the GI50 with RXF 393 is 1.49 µM (inactive); with HCC 2998 it was 1.82 µM (inactive).

On to `CC12CC(=O)C3C(C(=O)C1)C32C` (stereo not drawn), for which the GI50 in the assay with RPMI-8226, in the assay on HCT-116, in the assay with 786-0, in the assay on SF-268, in the assay on UACC-62 and in the assay with M14 was > 100 µM (inactive) in each case. For the same molecule, the GI50 with HT-29, with CAKI-1, in the assay on HOP-62, in the assay on SK-MEL-2, in the assay on NCI-H522 and in the assay on A498 was > 100 µM (inactive) throughout. Moreover, the GI50 in the assay with COLO 205, in the assay on SK-MEL-28, in the assay with CCRF-CEM, in the assay on OVCAR-8, with EKVX and with SF-295 was > 100 µM (inactive) throughout. Also, the GI50 in the assay with RXF 393 and in the assay on HCC 2998 was > 100 µM (inactive) each time.

Consider `OC(c1cc(C23CC4CC(CC(C4)C2)C3)nc2c(Cl)cc(Cl)cc12)C1CCCCN1` (stereo not drawn), for which the GI50 in the assay with RPMI-8226 was 1.77 µM (inactive); in the assay on HCT-116, 1.36 µM (inactive); in the assay on 786-0, 1.57 µM (inactive); in the assay on SF-268, 1.79 µM (inactive); in the assay on UACC-62, 1.76 µM (inactive); in the assay with M14, 1.8 µM (inactive). Moreover, the GI50 was 1.58 µM (inactive) in the assay on HT-29; 1.69 µM (inactive) in the assay with CAKI-1; 1.53 µM (inactive) in the assay on HOP-62; 1.87 µM (inactive) with SK-MEL-2; 1.57 µM (inactive) in the assay on NCI-H522; 1.7 µM (inactive) in the assay with A498. The GI50 is 1.71 µM (inactive) in the assay with COLO 205; 2.06 µM (inactive) in the assay with SK-MEL-28; 0.743 µM (active) with CCRF-CEM; 2.36 µM (inactive) with OVCAR-8; 1.73 µM (inactive) in the assay with EKVX; 1.67 µM (inactive) with SF-295. For the same molecule, the GI50 is 1.6 µM (inactive) in the assay with RXF 393 and 0.344 µM (active) in the assay with HCC 2998.

For `Cc1cccc(C(C)C)c1NC(=O)C(=O)C(C(=O)c1ccccc1F)C1OC(=O)c2ccccc21` (stereo not drawn), the GI50 was 4.78 µM (inactive) in the assay with RPMI-8226; 13.6 µM (inactive) in the assay with HCT-116; 15.7 µM (inactive) in the assay on 786-0; 9.64 µM (inactive) with SF-268; 10.4 µM (inactive) with UACC-62; 16.8 µM (inactive) with M14. Also, the GI50 with HT-29 was 29.6 µM (inactive); in the assay on CAKI-1, 31.5 µM (inactive); in the assay on HOP-62, 15.8 µM (inactive); in the assay on SK-MEL-2 it was 15.7 µM (inactive); in the assay on NCI-H522, 13.8 µM (inactive); with A498, 23.7 µM (inactive). For the same molecule, the GI50 with COLO 205 was 21.1 µM (inactive); in the assay with SK-MEL-28 it was 14.4 µM (inactive); in the assay with CCRF-CEM, 6.19 µM (inactive); in the assay with OVCAR-8 it was 16.5 µM (inactive); in the assay on EKVX it was 32.7 µM (inactive); with RXF 393 it was 11.4 µM (inactive). Further, the GI50 in the assay on HCC 2998 is 13.7 µM (inactive).

Regarding `Nn1c(S)nnc1C12CC3CC(CC(C3)C1)C2`, the GI50 in the assay with RPMI-8226, in the assay with HCT-116, in the assay on 786-0, with SF-268, in the assay on UACC-62 and in the assay on M14 was > 100 µM (inactive) in each case. For the same molecule, the GI50 in the assay on HT-29, with CAKI-1, in the assay with HOP-62, in the assay on SK-MEL-2, in the assay with NCI-H522 and in the assay on A498 was > 100 µM (inactive) in each case. Further, the GI50 in the assay with COLO 205, with SK-MEL-28, in the assay on CCRF-CEM, with EKVX, in the assay on SF-295 and with RXF 393 was > 100 µM (inactive) each time. Besides, in the assay with HCC 2998, the GI50 is > 100 µM (inactive).

Turning to `C/C1=C/C2OC(=O)C3(C)C2C(CC2(C)OC1=CC2=O)OC3(O)C(C)C` (stereo not drawn), the GI50 in the assay with RPMI-8226 is 21.8 µM (inactive); with HCT-116 it was > 61.1 µM (inactive); in the assay on 786-0, 26.1 µM (inactive); in the assay with SF-268 it was 38.9 µM (inactive); in the assay on UACC-62 it was 20.6 µM (inactive); with M14, 37 µM (inactive). The GI50 with HT-29 is 28.3 µM (inactive); with CAKI-1, 30.5 µM (inactive); in the assay with HOP-62, 41.6 µM (inactive); in the assay with SK-MEL-2 it was 29.4 µM (inactive); in the assay on NCI-H522, 14.8 µM (inactive); in the assay with A498, 73.8 µM (inactive). For the same molecule, the GI50 is 36.6 µM (inactive) with COLO 205; 40.5 µM (inactive) in the assay on SK-MEL-28; 23.6 µM (inactive) with CCRF-CEM; 29 µM (inactive) in the assay on OVCAR-8; 47.6 µM (inactive) in the assay with EKVX; 29.4 µM (inactive) with SF-295. Moreover, the GI50 is > 37.4 µM (inactive) in the assay with RXF 393 and 20.9 µM (inactive) with HCC 2998.

Take `CC[C@H](C)N(CCN)C(=O)c1cc2ccccc2c(-c2ccccc2Cl)n1`: the GI50 is 13.2 µM (inactive) in the assay on RPMI-8226; 2.85 µM (inactive) in the assay with HCT-116; 4.49 µM (inactive) in the assay on 786-0; 1.55 µM (inactive) in the assay with SF-268; 10.8 µM (inactive) with UACC-62; 17.8 µM (inactive) with M14. Also, the GI50 in the assay with HT-29 is 7.74 µM (inactive); in the assay with CAKI-1 it was 5.57 µM (inactive); in the assay on HOP-62 it was 17.5 µM (inactive); in the assay on SK-MEL-2, 18.8 µM (inactive); with NCI-H522, 17.5 µM (inactive); in the assay with A498, 4.07 µM (inactive). Also, the GI50 in the assay on COLO 205 is 4.54 µM (inactive); in the assay on SK-MEL-28, 13.5 µM (inactive); in the assay on CCRF-CEM, 3.3 µM (inactive); in the assay on OVCAR-8, 14.2 µM (inactive); in the assay with EKVX, 11.5 µM (inactive); in the assay on SF-295, 15.1 µM (inactive). Further, the GI50 in the assay with RXF 393 is 6.55 µM (inactive); in the assay with HCC 2998 it was 2.72 µM (inactive).

As for `CC(O)c1cc2c(s1)C(=O)c1c(C(C)O)csc1C2=O` (stereo not drawn), the GI50 in the assay on RPMI-8226 was 0.15 µM (active); in the assay on HCT-116 it was 0.14 µM (active); in the assay with 786-0, 0.392 µM (active); in the assay with SF-268, 0.249 µM (active); with UACC-62, 0.0589 µM (active); in the assay on M14, 0.126 µM (active). In addition, the GI50 was 0.586 µM (active) in the assay on HT-29; 0.382 µM (active) with CAKI-1; 0.199 µM (active) in the assay with HOP-62; 0.148 µM (active) with SK-MEL-2; 0.305 µM (active) in the assay with NCI-H522; 0.21 µM (active) in the assay with A498. The GI50 was 1.28 µM (inactive) with COLO 205; 0.185 µM (active) in the assay with SK-MEL-28; 0.173 µM (active) in the assay with CCRF-CEM; 0.22 µM (active) in the assay with OVCAR-8; 0.364 µM (active) in the assay with EKVX; 0.123 µM (active) in the assay with SF-295. Besides, the GI50 with RXF 393 was 0.187 µM (active); in the assay on HCC 2998, 0.351 µM (active).

The record behind these values is ChEMBL document CHEMBL1201862, “PubChem BioAssay data set” (2004).
